# Experiments:
# Assay type in all cases: cell-based, human
# [1] = test system: Rh1, Rh18 and/or Rh30 cells; assay: Determination of apoptosis, cell line not specified for the result
# Source text: Determination of apoptosis.
# Similar experiments can be performed using compounds that are relatively poor inhibitors of AKT in vitro but, preferably, are chemically similar to the phenoxazine or other compounds tested that are effective inhibitors of AKT. For example, the apoptosis of cells in response to the phenoxazine compound 12B or 20B, which are relatively poor inhibitors of AKT in vitro, can be compared to apoptosis of cells in response to the chemically similar compounds 10B and/or 15B, which are effective AKT inhibitors. In this way, a skilled practitioner can evaluate whether apoptosis observed in response to an effective AKT inhibitor (e.g., apoptosis observed in response to compound 10B or 15B) is due to a general toxic effect rather than AKT inhibition.
# [2] = test system: AKT, mTOR and rpS6; assay: IGF-1-induced phosphorylation of AKT, mTOR and rpS6 in serum-starved Rh18 cells
# Experimental: (§1) Cellular screening for inhibitors. Rh1, Rh18 and Rh30 cells can each be seeded at a density of 4×10^6/10-cm plate in serum-free medium for overnight attachment. The cells can then be exposed to 0.1% DMSO or to a test compound (for example, a phenoxazine or acridone compound) for one hour, then stimulated with Insulin-like growth factor-I (IGF-I) (10 ng/ml) for 10 minutes.
# (§2) Western blot analysis. Cells are rapidly washed with ice-cold phosphate-buffered saline (PBS), placed on ice, and lysed in mammalian protein extraction reagent (M-PER; available from Pierce, Rockford, Ill.) containing one Complete™ mini protease inhibitor tablet (available from Boehringer Mannheim, Mannheim, Germany), 1 mM phenylmethylsulfonyl fluoride, 1 mM Na3VO4 and 1 mM NaF. Cellular debris is pelleted by centrifugation at 17,500×g for 10 minutes at 4° C. The protein concentration of the supernatants is measured by the bicinchoninic acid assay (e.g., using the BCA™ Protein Assay Kit, Pierce, Rockford, Ill., catalog number 23225 or 23227) using bovine serum albumin as the standard. […]
# [3] = test system: AKT, mTOR and rpS6; assay: IGF-1-induced phosphorylation of AKT, mTOR and rpS6 in serum-starved Rh30 cells
# Experimental: as §1, §2
# [4] = test system: AKT; assay: Inhibition of IGF-I stimulated AKT phosphorylation (Ser473) in Rh1 cells, Western blot; conditions: 5 μM, 1 hour, serum starved Rh1 cells, IGF-I 10 ng/ml 10 minutes; average of two experiments
# Experimental: Cell lines and growth conditions. The human cell lines Rh1, Rh18, and Rh30 (ATCC Deposit # CRL 2061) have been described, e.g., by Hazelton et al. Cancer Res 1987;47:4501-4507 and Hosoi et al. Cancer Res. 1999;59:886-894. Rh1, Rh18 and Rh30 cells can each be grown in antibiotic free RPMI-1640 medium (available from BioWhittaker, Walkersville, Md.), supplemented with 10% fetal bovine serum (available from HyClone Laboratories, Logan, Utah) and 2 mM L-glutamine (available from BioWhittaker, Walkersville, Md.) at 37° C. in an atmosphere of 5% CO2. For serum free experiments, cells can be cultured in modified N2E (MN2E) medium (DMEM/F-12, 1:1 mixture) (Sigma, St. Louis, Mo.) supplemented with 1 μg/ml human holo transferrin, 30 nM sodium selenite, 20 nM progesterone, 100 μM putrescine, 30 nM vitamin E phosphate, and 50 μM ethanolamine. Cells in MN2E medium containing 5 μg/ml bovine fibronectin (available from Sigma, St. Louis, Mo.) are preferably plated, and allowed to attach overnight at 37° C. in a humidified, 5% CO2 atmosphere.
# as §1
# (§3) Western blot analysis. Cells are rapidly washed with ice-cold phosphate-buffered saline (PBS), placed on ice, and lysed in mammalian protein extraction reagent (M-PER; available from Pierce, Rockford, Ill.) containing one Complete™ mini protease inhibitor tablet (available from Boehringer Mannheim, Mannheim, Germany), 1 mM phenylmethylsulfonyl fluoride, 1 mM Na3VO4 and 1 mM NaF. Cellular debris is pelleted by centrifugation at 17,500×g for 10 minutes at 4° C. The protein concentration of the supernatants is measured by the bicinchoninic acid assay (e.g., using the BCA™ Protein Assay Kit, Pierce, Rockford, Ill., catalog number 23225 or 23227) using bovine serum albumin as the standard.
# For the analysis of AKT, ERK-1/2, mTOR, p70S6 kinase, ribosomal protein S6 (rpS6 or S6), and glycogen synthase kinase 3 (GSK-3), equivalent amounts of protein can be separated on a 12% SDS-polyacrylamide gel (available from BioRad, Hercules, Calif.) by electrophoresis and subsequently transferred to a nitrocellulose membrane (also available from BioRad). After a 1 hour incubation in 1×TBS containing 0.05% Tween 20 and 5% blocking reagent (skim milk) (available from Upstate Biotechnology, Lake Placid, N.Y.) at room temperature, the wet nitrocellulose membranes are incubated with appropriate antibodies (available from Cell Signaling Technology, Beverly, Mass.): rabbit polyclonal antiserum specific for the phosphorylated Ser473 or Thr308 of AKT (dilution 1:1000); rabbit polyclonal antiserum specific for phosphorylated Thr202/Tyr204 of ERK-1/2 (dilution 1:1000); rabbit polyclonal antiserum specific for phosphorylated Ser2448 or Ser2481 of mTOR (dilution 1:1000); rabbit polyclonal antiserum specific for phosphorylated Thr389 of p70S6 kinase (dilution 1:4000); rabbit polyclonal antiserum specific for phosphorylated Ser235/236 of rpS6 (dilution 1:1000); or rabbit polyclonal antiserum specific for phosphorylated Ser21/9 of GSK-3α/β (dilution 1:1000). Horseradish peroxidase-conjugated goat anti-rabbit IgG antibody (dilution 1:10,000) can be used as the secondary antibody. Immunoreactive protein can be visualized using Renaissance chemiluminescence reagent (available from Life Science Products Inc., Boston, Mass.).
# For these assays, Rh1 cells are seeded in serum-free medium for overnight attachment. The serum starved Rh1 cells are then exposed to 1-5 μM of a compound in Table I for 1 hour before stimulating with IGF-I (10 ng/ml) for 10 minutes. […]
# [5] = test system: mTOR (Ser2448 and Ser2481), rpS6 (Ser235/236) and p70S6 kinase (Thr389); assay: IGF-I induced phosphorylation of AKT downstream targets in Rh1 cells, Western blot; conditions: 3.5 to 5.0 μM, 1 hour, Rh1 cells serum-free, IGF-I 10 minutes
# Experimental: as §1, §3
# For the analysis of AKT, ERK-1/2, mTOR, p70S6 kinase, ribosomal protein S6 (rpS6 or S6), and glycogen synthase kinase 3 (GSK-3), equivalent amounts of protein can be separated on a 12% SDS-polyacrylamide gel (available from BioRad, Hercules, Calif.) by electrophoresis and subsequently transferred to a nitrocellulose membrane (also available from BioRad). […]
Substance,induction of apoptosis [1],"block of IGF-1-induced phosphorylation of AKT, mTOR and rpS6 [2]","block of IGF-1-induced phosphorylation of AKT, mTOR and rpS6 [3]",Inhibition (phosphorylation of AKT at Ser 473) [4],"inhibition of IGF-I induced phosphorylation of mTOR, rpS6 and p70S6 kinase [5]"
10-(N-pyrrolidinoacetyl)-2-chlorophenoxazine [Compound 20B],neither the compound 12B or 20B,possible exception,possible exception,−−− (−−− <25% inhibition),
10-[3′-[(β-hydroxyethyl)piperazino]propyl]-2-chlorophenoxazine [Compound 8B],,,,+++ (+++ ≈ 75% inhibition),markedly inhibited

# Source: patent US20060241108A1, “Substituted phenoxazines and acridones as inhibitors of AKT” (St. Jude Children's Research Hospital, priority 2005, published 2006)
